According to patent US20260199371A1, “COORDINATION COMPOUND, COMPOSITIONS, AND USES THEREOF FOR TREATING CANCERS” (HUEIYUAN BIOTECH LLC, priority 2023, published 2026):

What was measured:
[1] = test system: EMT markers in LoVo-parental cells; conditions: qRT-PCR
Excerpt: Vimentin and E-cadherin are molecular markers linked to tumor progression through their roles in EMT, which is a pathological process contributing to migration and invasion of cancer cells and tumor progression. Vimentin is a key component of intermediate filaments, which helps maintain cellular integrity and resistance to stress. E-cadherin plays a role in maintaining epithelial phenotypes by mediating contact inhibition when cells proliferate and reach confluence. To further investigate the influence of the compound (II) on EMT marker expression, western blotting, immunofluorescence detection, and quantitative real-time reverse transcription polymerase chain reaction (qRT-PCR) were performed in LoVo-parental and LoVo-OXAR cells treated with various doses of the compound (II) for 24 hours.
Total RNA from the cells after the indicated treatments was extracted using the GeneJET RNA purification kit (ThermoFisher Scientific, Lithuania) and reverse transcribed to cDNA using a GScript First-Strand Synthesis Kit, a cDNA synthesis kit, and Oligo-dT primers according to the manufacturer's instructions. RT-PCR was performed using ORA^T SEE qPCR Green ROX L Mix, 2× (HighQu, USA). Primers for EMT markers (Vimentin, E-cadherin, TJP1, and FN1) and GAPDH (as endogenous control) were synthesized by Bio-ProTech based the sequences in TABLE 1. The 2^−ΔΔCt method was used to calculate a relative fold change in gene expression. […] TJP1 is a marker of epithelial cells that disappears during EMT and cancer development. In contrast, FN1 is involved in the occurrence and development of various tumors and acts as a critical gene in gastric cancer.

[2] = test system: 143B cells; conditions: Transwell migration
Experimental: (§1) Transwell migration assay, as described in Example 5.1, was performed on 143B cells to investigate how the compound (II) would affect the migration ability of bone cancer cells.

[3] = test system: EMT markers in 143B cells; conditions: western blot
Experimental: as §1

[4] = test system: LoVo-OXAR cells; conditions: 24 hours

CC(=O)[O-].CC(=O)[O-].CC(=O)[O-].CC(=O)[O-].CC(=O)[O-].CC(=O)[O-].O.O.O.O.O=[N+]([O-])[O-].[Cr+3].[Fe+3].[Fe+3].[OH-].[OH-] [compound (II)]
E-cadherin mRNA expression [1]: increased | FN1 mRNA expression [1]: decreased | TJP1 mRNA expression [1]: increased | vimentin mRNA expression [1]: decreased | crawling (migration) of 143B cells [2]: inhibited by the compound (II) in a dose-dependent manner | E-cadherin expression [3]: increasing | vimentin expression [3]: significantly decreased | viability of LoVo-OXAR cells ([4]; 0-4000 μg/ml): reduced the viability of both colorectal cancer cells in a dose-dependent manner | IC50 against LoVo-OXAR cells ([4]; MTT): about 2000 μg/ml
